From patent US8420600B2 (Vallinex, Inc., priority 2002, dated 2013)
Where “and” joins values, the source holds several entries; their conditions need not be identical. Identical values can stand only once.

Key:
[1] = tested on: subjects with osteoarthritis of the knee; test: Osteoarthritis of the Knee Safety Study: VAS pain at the target knee; format: in vivo, human
Method: (§1) The study was designed to include 16 evaluation subjects. […] Sixteen subjects completed the study.
(§2) Patients were treated randomly and in double-blind fashion in four treatment cohorts, with each cohort having a progressively longer interval between the intra-articular administration of study medication and subsequent total knee replacement (2, 4, 7, and 14 days). […] Gross and microscopic pathology analysis was completed for each treatment cohort before the next treatment cohort was treated.
(§3) Each subject had 3 study visits: a Screening Day (Day −7 to −1), the Treatment Day (Day 0), and a Post-Treatment Day (scheduled for Day +2, +4, +7, or +14). On the Treatment Day the subject was randomized, pre-treatment evaluation was performed. The patients were brought into the procedure room, and a VAS pain score was taken (0 mm—no pain, 100 mm—extreme pain). Once the patient had marked his or her pain on the card, he/she was prepped for knee cannulation. Once the cannula was placed, the patient received by intra-articular infiltration, 3 mg/kg (maximum dose of 200 mg) of 2% lignocaine into the knee scheduled to be replaced.
VAS pain scores as well as verbal reports were taken immediately following administration, as well as prior to knee replacement surgery. No subjects discontinued from the study due to adverse events. […]

[2] = tested on: radiation induced hyperalgesia; conditions: systemically delivered, cited from earlier work
[3] = tested on: subjects with osteoarthritis of the knee; test: Osteoarthritis of the Knee Safety Study: safety and tolerability of intra-articular capsaicin; format: in vivo, human
Method: The primary objective of the study was to evaluate the safety and tolerability of intra-articular capsaicin, when co-administered with intra-articular local anesthetic, compared to placebo, in subjects with end-stage osteoarthritis of the knee, already scheduled to receive knee replacements.
as §1, §2, §3
VAS pain scores as well as verbal reports were taken immediately following administration, as well as prior to knee replacement surgery. No subjects discontinued from the study due to adverse events.
On the Post-Treatment Day, study evaluation was performed followed by the scheduled knee replacement, with intra-operative bone and soft tissue biopsies performed for subsequent examination. […] This therefore left the 3 placebo and 9 active patients from the 4 day, 7 day, and 14 day cohorts.

[4] = tested on: subjects undergoing transpositional osteotomy (bunionectomy); test: Bunionectomy Efficacy Study: VAS pain score and rescue medication; format: in vivo, human; conditions: for VAS pain score (Table 4), mean +/− SEM: 1000 μg into the wound prior to closure, n = 11
Method: The primary efficacy endpoint was the proportion of subjects in each treatment group requiring opioid analgesia in the first 24 hours post-operatively. The proportions were compared amongst treatment groups using the Cochran-Haenszel test. Secondary efficacy end points included: i) proportion of subjects in each treatment group requiring opioid analgesia in the first 36 hour period post-operatively (Similarly, the proportions were compared amongst treatment groups using the Cochran-Haenszel test); ii) proportion of subjects in each treatment group requiring opioid analgesia in the 10 day period post-operatively (Similarly, the proportions were compared amongst treatment groups using the Cochran-Haenszel test); iii) time to first usage of opioid analgesia in each treatment group (a survival analysis approach will be used: the product-limit (Kaplan-Meier) method will be applied to time to first usage of opioid analgesia. The median time to first usage of opioid analgesia will be estimated in both treatment groups. Pairwise comparisons will be performed to test for equality of the survival curves between the 2 treatment groups using both the log-rank and the Wilcoxon test); iv) total usage of analgesia in each treatment group (the total usage of analgesia will be compared by an analysis of variance with treatment and center as independent variables. A pairwise comparison will be performed between the treatment groups); and v) VAS assessment of pain at the site of operation in each treatment group (The VAS score at each time point will be compared by an analysis of variance with treatment and center as independent variables. A pairwise comparison will be performed between the treatment groups). […] The efficacy analysis was performed on the data obtained ten days postoperatively. The safety analysis was performed based on the safety data for the entire study, including the 6 week and 12 week follow-up periods. The blind was broken at the time the efficacy analysis was performed. However, the individual treatment assignment was available to the statistical analysis group only. All other personnel involved in the study, including the Investigator, study monitor and proprietary staff, remained blinded until the entire study was completed.
The study was designed to include 40 evaluation subjects. […] Each subject had six (6) study visits: a Screening Day (Day −28 to −1), an Operation Day (Day 0), and four (4) Follow-up visits (scheduled for Days 3, 10 and weeks 6 and 12).
On Operation Day (Day 0) the following was performed: a) Pre-operation: Prior to the initiation of an ankle block, inclusion/exclusion criteria assessment was performed. […] Immediately prior to wound closure, the Investigator slowly dripped the study medication (4 mL) from a syringe into the wound, ensuring even tissue exposure. The wound was then closed according to normal practices and procedures.
In the 24 hours following administration of study medication, vital signs (supine pulse rate and blood pressure) were recorded at 1, 2, 4 and 24 hours post administration. VAS assessment of pain at the operation site was performed at 1, 4, 8, 12 and 24 hours post administration. In those instances where VAS measurements coincide with blood sampling procedures, the VAS assessment was performed first. […] The quantity of each blood sample was 10 mL. Laboratory safety assessments, e.g., haematology, biochemistry, urinalysis were performed at 24 hours post administration. Adverse events were spontaneously reported by the subject and recorded. Rescue analgesia medication was provided to the subject if required (initially diclofenac 50 mg, repeated at 8 hourly intervals if necessary). When diclofenac was judged by the Investigator to provide inadequate pain relief then the subject was provided with alfentanil, 1 mg, repeated at 6 hourly intervals when necessary.

For `COc1cc(CNC(=O)CCCC/C=C/C(C)C)ccc1O` [capsaicin, N-(4-hydroxy-3-methoxybenzyl)-8-methylnon-trans-6-enamide], the “reduction of VAS pain score, prior to drug administration vs day of surgery” value ([1]; 9 active patients of the 4 day, 7 day and 14 day cohorts, 10, 100 and 300 μg pooled) is listed as 62±14%, the “treatment related indication of efficacy (VAS)” value ([1]; dose levels 10 μg, 100 μg and 300 μg) is listed as “No clear treatment related indication of efficacy was seen” and the “effect on radiation induced hyperalgesia” value ([2]; final doses of 25 mg/kg or less prior to ultra violet radiation) is listed as “prevented radiation induced hyperalgesia”. The “effect on pain threshold” value ([2]; final doses of 25 mg/kg or less) was “did not elevate the pain threshold above normal range”, the “duration of post-administration (hyper) algesic pain” value ([3]; 300 μg dose group, individual subjects) was 17 minutes and 25 minutes (2×) and 42 minutes and the “proprioception at the injected knee” value ([3]; any dose group, any time point) was “no discernable effect”. The “average duration of post injection hyperalgesia” value ([3]; burning sensation, 100 and 300 μg dose groups) was “less than thirty minutes”, the “erythema, edema or hemorrhage at the site of injection” value ([3]; in vivo) was “no treatment related signs” and the “histopathological examination of soft tissue, cartilage and bone” value ([3]; in vivo) was “no treatment related effects on soft tissue, cartilage, or bone”. The “laboratory safety parameters and vital signs” value ([3]; in vivo) was “no treatment related effects on laboratory safety parameters or vital signs”, the systemic side effects ([3]; in vivo) was “No treatment related systemic side effects were seen” and the “leakage of study drug from the joint space” value ([3]; intra-articular, knee) was “low leakage”. For the same molecule, the “gross and microscopic pathology” value ([3]; knee tissue at replacement) was “normal”, the “VAS pain score (Table 4), mean +/− SEM” value ([4]; 8 hr) was 5.5 +/− 2.3 and the “VAS pain score (Table 4), mean +/− SEM” value ([4]; 12 hr) was 8.2 +/− 3.8. For the same molecule, the “VAS pain score (Table 4), mean +/− SEM” value ([4]; 24 hr) was 1.9 +/− 1.0, the “VAS pain score (Table 4), mean +/− SEM” value ([4]; 48 hr) was 5.9 +/− 2.5 and the “effect on opioid rescue” value ([4]; 1000 μg prior to wound closure) was “decreased opioid rescue”. The “time at which a subject required rescue” value ([4]; 1000 μg prior to wound closure, individual subjects) was 1 h and 4 h and 5 h and 8 h and 12 h.
